The values that follow come from US9845321B2, “1,3-dihydro-2H-benzimidazol-2-one derivatives substituted with heterocycles as respiratory syncytial virus antiviral agents” (JANSSEN SCIENCES IRELAND UC, priority 2012, dated 2017).

Some results are limits rather than exact numbers.

Data set [1] relates to rgRSV224 virus. The data set is described as follows: Antiviral activity: rgRSV224 (GFP-expressing RSV) replication in HeLa cells, GFP expression measured three days post-virus exposure. In kind it is cell-based. The following applies: human respiratory syncytial virus, 72 h, read-out: WT activity pEC50 (converted). The procedure: (§1) Black 96-well clear-bottom microtiter plates (Corning, Amsterdam, The Netherlands) were filled in duplicate using a customized robot system with serial 4-fold dilutions of compound in a final volume of 50 μl culture medium [RPMI medium without phenol red, 10% FBS, 0.04% gentamycin (50 mg/ml) and 0.5% DMSO]. Then, 100 μl of a HeLa cell suspension (5×10^4 cells/ml) in culture medium was added to each well followed by the addition of 50 μl rgRSV224 (MOI=0.02) virus in culture medium using a multidrop dispenser (Thermo Scientific, Erembodegem, Belgium). rgRSV224 virus is an engineered virus that includes an additional GFP gene (Hallak et al, 2000) and was in-licensed from the NIH (Bethesda, Md., USA). Medium, virus- and mock-infected controls were included in each test. Cells were incubated at 37° C. in a 5% CO2 atmosphere. Three days post-virus exposure, viral replication was quantified by measuring GFP expression in the cells by a MSM laser microscope (Tibotec, Beerse, Belgium). The EC50 was defined as the 50% inhibitory concentration for GFP expression. In parallel, compounds were incubated for three days in a set of white 96-well microtitier plates (Corning) and the cytotoxicity of compounds in HeLa cells was determined by measuring the ATP content of the cells using the ATPlite kit (PerkinElmer, Zaventem, Belgium) according to the manufacturer's instructions. The CC50 was defined as the 50% concentration for cytotoxicity.

The nature of data set [2]: in vitro. The data set is classed as cell-based. The conditions noted are these: human. On the procedure: as §1

One may read the CC50 as the concentration that lowers cell viability or growth by half. A higher CC50 goes with better tolerance by the cells. In the case of `CS(=O)(=O)CCCn1c(Cn2c(=O)n(C3CNC3)c3ccc(F)cc32)cc2cc(Cl)ccc21` [Compound P3, 1-(azetidin-3-yl)-3-((5-chloro-1-(3-(methylsulfonyl)propyl)-1H-indol-2-yl)methyl)-5-fluoro-1H-benzo[d]imidazol-2(3H)-one], in data set [1], the EC50 was 0.1 µM. This compound had a CC50 at 3 days in data set [2] of 12.6 µM.

Take `CS(=O)(=O)CCCn1c(Cn2c(=O)n(C3CNC3)c3ccncc32)cc2cc(Cl)ccc21` [Compound P4, 1-(azetidin-3-yl)-3-((5-chloro-1-(3-(methylsulfonyl)propyl)-1H-indol-2-yl)methyl)-1H-imidazo[4,5-c]pyridin-2(3H)-one]: the EC50 in data set [1] was 0.0316 µM. In data set [2], the CC50 at 3 days is more than 100 µM. As to `CC1(n2c(=O)n(Cc3cc4cc(Cl)ccc4n3CCCS(C)(=O)=O)c3cnccc32)CC1` [Compound P7, 3-((5-chloro-1-(3-(methylsulfonyl)propyl)-1H-indol-2-yl)methyl)-1-(1-methylcyclopropyl)-1H-imidazo[4,5-c]pyridin-2(3H)-one], the EC50 in data set [1] was 0.000501 µM. In addition, the midpoint of cytotoxicity in data set [2], the CC50 at 3 days, lay at 50.1 µM.

For `CC1(n2c(=O)n(Cc3nc4nc(Cl)ccc4n3CCCC(F)(F)F)c3cnccc32)CC1` [Compound P9, 3-((5-chloro-1-(4,4,4-trifluorobutyl)-1H-imidazo[4,5-b]pyridin-2-yl)methyl)-1-(1-methylcyclopropyl)-1H-imidazo[4,5-c]pyridin-2(3H)-one], the EC50 in data set [1] was 0.001 µM. This compound returned a cytotoxic concentration (CC50) at 3 days in data set [2] of more than 100 µM.

With `CC(C)(O)CN1CC(n2c(=O)n(Cc3cc4cc(Cl)ccc4n3CCCS(C)(=O)=O)c3cc(F)ccc32)C1` [Compound P12, 3-((5-chloro-1-(3(methylsulfonyl)propyl)-1H-indol-2-yl)methyl)-5-fluoro-1-(1-(2-hydroxy-2-methylpropyl)azetidin-3-yl)-1H-benzo[d]imidazol-2(3H)-one], the EC50 in data set [1] was 0.0398 µM. Besides, in data set [2], half-maximal cytotoxicity (CC50 at 3 days) was put at 12.6 µM. As to `COc1ccc(-n2c(=O)n(Cc3cc4cc(Cl)ccc4n3CCCC#N)c3cnccc32)cc1` [Compound P14, 4-(5-chloro-2-((1-(4-methoxyphenyl)-2-oxo-1H-imidazo[4,5-c]pyridin-3(2H)-yl)methyl)-1H-indol-1-yl)butanenitrile], in data set [1], the EC50 was 0.000398 µM. Further, half-maximal cytotoxicity in data set [2] (CC50 at 3 days) was put at 12.6 µM. `COc1ccc(-n2c(=O)n(Cc3cc4cc(Cl)ccc4n3CCCC#N)c3cnccc32)cc1F` [Compound P15, 4-(5-chloro-2-((1-(3-fluoro-4-methoxyphenyl)-2-oxo-1H-imidazo[4,5-c]pyridin-3(2H)-yl)methyl)-1H-indol-1-yl)butanenitrile]: the EC50 in data set [1] was 0.001 µM. In data set [2], this compound registered a 50% cytotoxic concentration (CC50) at 3 days of more than 100 µM. For the compound `COc1ccc(-n2c(=O)n(Cc3nc4nc(Cl)ccc4n3CCC(C)C)c3cnccc32)cc1` [Compound P16, 3-((5-chloro-1-isopentyl-1H-imidazo[4,5-b]pyridin-2-yl)methyl)-1-(4-methoxyphenyl)-1H-imidazo[4,5-c]pyridin-2(3H)-one], the EC50 in data set [1] is 0.001 µM. In data set [2], the CC50 at 3 days was more than 50.1 µM. Consider `COc1ccc(-n2c(=O)n(Cc3cc4nc(Cl)ccc4n3CCCC(F)(F)F)c3cnccc32)cc1` [Compound P17, 3-((5-chloro-1-(4,4,4-trifluorobutyl)-1H-pyrrolo[3,2-b]pyridin-2-yl)-methyl)-1-(4-methoxyphenyl)-1H-imidazo[4,5-c]pyridin-2(3H)-one], for which the EC50 in data set [1] was 0.01 µM. Also, the 50% cytotoxic concentration (CC50) at 3 days in data set [2] is more than 100 µM. For `CC(C)CCn1c(Cn2c(=O)n(C3(C)CC3)c3ccncc32)nc2nc(Cl)ccc21` [Compound P18, 3-((5-chloro-1-isopentyl-1H-imidazo[4,5-b]pyridin-2-yl)methyl)-1-(1-methylcyclopropyl)-1H-imidazo[4,5-c]pyridin-2(3H)-one], the EC50 in data set [1] was 0.002 µM. This compound yielded a cytotoxic concentration (CC50) at 3 days in data set [2] of more than 100 µM. For `N#CCCCn1c(Cn2c(=O)n(-c3ncccn3)c3ccncc32)cc2cc(Cl)ccc21` [Compound P21, 4-(5-chloro-2-((2-oxo-1-(pyrimidin-2-yl)-1H-imidazo[4,5-c]pyridin-3(2H)-yl)methyl)-1H-indol-1-yl)butanenitrile] the same measures were 0.00631 µM and more than 100 µM. On to `CC(C)CCn1c(Cn2c(=O)n(-c3ccncc3)c3ccncc32)nc2nc(Cl)ccc21` [Compound P23, 3-((5-chloro-1-isopentyl-1H-imidazo[4,5-b]pyridin-2-yl)methyl)-1-(pyridin-4-yl)-1H-imidazo[4,5-c]pyridin-2(3H)-one], for which the EC50 in data set [1] was 0.00794 µM. The same compound had a CC50 at 3 days in data set [2] of more than 100 µM.

As for `COCCOc1ccc(-n2c(=O)n(Cc3cc4cc(Cl)ccc4n3CCCC#N)c3cnccc32)cc1` [Compound P28, 4-(5-chloro-2-((1-(4-(2-methoxyethoxy)phenyl)-2-oxo-1H-imidazo[4,5-c]pyridin-3(2H)-yl)methyl)-1H-indol-1-yl)butanenitrile], the EC50 in data set [1] was 0.0002 µM. The CC50 at 3 days in data set [2] is more than 100 µM. Regarding `N#CCCCn1c(Cn2c(=O)n(-c3ccc(OC(F)(F)F)cc3)c3ccncc32)cc2cc(Cl)ccc21` [Compound P29, 4-(5-chloro-2-((2-oxo-1-(4-(trifluoromethoxy)phenyl)-1H-imidazo[4,5-c]pyridin-3(2H)-yl)methyl)-1H-indol-1-yl)butanenitrile], the EC50 in data set [1] is 0.00126 µM. For the same compound, the CC50 at 3 days in data set [2] is more than 100 µM.

`CS(=O)(=O)CCCn1c(Cn2c(=O)n(-c3ccc(Cl)cc3)c3ccncc32)cc2cc(Cl)ccc21` [Compound P30, 3-((5-chloro-1-(3-(methylsulfonyl)propyl)-1H-indol-2-yl)methyl)-1-(4-chlorophenyl)-1H-imidazo[4,5-c]pyridin-2(3H)-one]: the EC50 in data set [1] is 0.00158 µM. This compound had a CC50 at 3 days in data set [2] of more than 100 µM. For the compound `O=c1n(Cc2cc3cc(Cl)ccc3n2CCCCF)c2cnccc2n1-c1ccc2ncccc2c1` [Compound P31, 3-((5-chloro-1-(4-fluorobutyl)-1H-indol-2-yl)methyl)-1-(quinolin-6-yl)-1H-imidazo[4,5-c]pyridin-2(3H)-one], the EC50 in data set [1] is 0.00158 µM. This compound came in with a CC50 at 3 days in data set [2] of more than 100 µM. As to `Cn1ccnc1-n1c(=O)n(Cc2cc3cc(Cl)ccc3n2CCCC#N)c2cnccc21` [Compound P33, 4-(5-chloro-2-((1-(1-methyl-1H-imidazol-2-yl)-2-oxo-1H-imidazo[4,5-c]pyridin-3(2H)-yl)methyl)-1H-indol-1-yl)butanenitrile], in data set [1], the EC50 is 0.01 µM. The compound also displayed a cytotoxic concentration (CC50) at 3 days in data set [2] of more than 100 µM. As to `N#CCCCn1c(Cn2c(=O)n(-c3ccncc3)c3ccc(F)cc32)cc2cc(Cl)ccc21` [Compound P40, 4-(5-chloro-2-((6-fluoro-2-oxo-3-(pyridin-4-yl)-2,3-dihydro-1H-benzo[d]imidazol-1-yl)methyl)-1H-indol-1-yl)butanenitrile], the 50% cytotoxic concentration (CC50) at 3 days in data set [2] was more than 100 µM.

In the case of `CS(=O)(=O)c1ccc(-n2c(=O)n(Cc3cc4cc(Cl)ccc4n3CCCC#N)c3cnccc32)cc1` [Compound P41, 4-(5-chloro-2-((1-(4-(methylsulfonyl)phenyl)-2-oxo-1H-imidazo[4,5-c]pyridin-3(2H)-yl)methyl)-1H-indol-1-yl)butanenitrile], in data set [1], the EC50 was 0.0002 µM. In data set [2], this compound had a 50% cytotoxic concentration (CC50) at 3 days of more than 100 µM. `N#CCCCn1c(Cn2c(=O)n(-c3ccncc3F)c3ccncc32)cc2cc(Cl)ccc21` [Compound P42, 4-(5-chloro-2-((1-(3-fluoropyridin-4-yl)-2-oxo-1H-imidazo[4,5-c]pyridin-3(2H)-yl)methyl)-1H-indol-1-yl)butanenitrile]: the EC50 in data set [1] was 0.000316 µM. This compound also came in with a half-maximal cytotoxic concentration (CC50) at 3 days in data set [2] of more than 100 µM. In the case of `N#CCCCn1c(Cn2c(=O)n(-c3ccc4ncccc4c3)c3ccncc32)cc2cc(Cl)ccc21` [Compound P43, 4-(5-chloro-2-((2-oxo-1-(quinolin-6-yl)-1H-imidazo[4,5-c]pyridin-3(2H)-yl)methyl)-1H-indol-1-yl)butanenitrile], the EC50 in data set [1] is 0.000398 µM. This compound gave a CC50 at 3 days in data set [2] of more than 100 µM. `O=c1n(Cc2cc3cc(Cl)ccc3n2CCCCF)c2cnccc2n1-c1ccncc1` [Compound P44, 3-((5-chloro-1-(4-fluorobutyl)-1H-indol-2-yl)methyl)-1-(pyridin-4-yl)-1H-imidazo[4,5-c]pyridin-2(3H)-one]: the EC50 in data set [1] was 0.001 µM. The compound further registered a 50% cytotoxic concentration (CC50) at 3 days in data set [2] of more than 100 µM. For `COc1ccc(-n2c(=O)n(Cc3cc4cc(Cl)ccc4n3CCCC#N)c3cnccc32)c(F)c1` [Compound P45, 4-(5-chloro-2-((1-(2-fluoro-4-methoxyphenyl)-2-oxo-1H-imidazo[4,5-c]pyridin-3(2H)-yl)methyl)-1H-indol-1-yl)butanenitrile], the EC50 in data set [1] was 0.001 µM. For the same compound, the 50% cytotoxic concentration (CC50) at 3 days in data set [2] was 15.8 µM. On to `Cc1ccc(-n2c(=O)n(Cc3cc4cc(Cl)ccc4n3CCCC#N)c3cnccc32)cc1` [Compound P46, 4-(5-chloro-2-((2-oxo-1-p-tolyl-1H-imidazo[4,5-c]pyridin-3(2H)-yl)methyl)-1H-indol-1-yl)butanenitrile], for which the EC50 in data set [1] was 0.00126 µM. The compound also showed a CC50 at 3 days in data set [2] of more than 100 µM.

For `COc1ccc(-n2c(=O)n(Cc3cc4cc(Cl)ccc4n3CCCC#N)c3cnccc32)c(OC)c1` [Compound P47, 4-(5-chloro-2-((1-(2,4-dimethoxyphenyl)-2-oxo-1H-imidazo[4,5-c]pyridin-3(2H)-yl)methyl)-1H-indol-1-yl)butanenitrile], the EC50 in data set [1] is 0.00158 µM. Besides, the half-maximal cytotoxic concentration (CC50) at 3 days in data set [2] is more than 100 µM.
